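Interpolation was linear, between the two tested concentrations surrounding the appropriate level; five concentrations were tested over 48 hours in 96-well plates. GI50: concentration for 50% inhibition of growth. TGI: total growth inhibition.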
Experiments:
Experiment in all cases: inhibition of tumour cell growth, NCI panel, 48 h; in the data active = GI50 below about 0.43 µM; inactive = the rest
OVCAR-3 ovarian = system: OVCAR-3 ovarian
MOLT-4 leukemia = system: MOLT-4 leukemia
SK-OV-3 ovarian = system: SK-OV-3 ovarian
EKVX NSCLC = system: EKVX NSCLC
BT-549 breast = system: BT-549 breast
SK-MEL-2 melanoma = system: SK-MEL-2 melanoma
SNB-19 CNS = system: SNB-19 CNS
HL-60(TB) leukemia = system: HL-60(TB) leukemia
NCI-H522 lung = system: NCI-H522 lung
HS 578T breast = system: HS 578T breast
CCRF-CEM leukemia = system: CCRF-CEM leukemia
HCT-116 colon = system: HCT-116 colon
OVCAR-4 ovarian = system: OVCAR-4 ovarian
RXF 393 renal = system: RXF 393 renal
NCI/ADR-RES ovarian = system: NCI/ADR-RES ovarian
PC-3 prostate = system: PC-3 prostate
SF-539 CNS = system: SF-539 CNS
ACHN renal = system: ACHN renal
NCI-H460 lung = system: NCI-H460 lung
MDA-MB-435 = system: MDA-MB-435
KM12 colon = system: KM12 colon
OVCAR-5 ovarian = system: OVCAR-5 ovarian
MALME-3M melanoma = system: MALME-3M melanoma
U251 CNS = system: U251 CNS
SNB-75 CNS = system: SNB-75 CNS
M14 melanoma = system: M14 melanoma
COLO 205 colon = system: COLO 205 colon
SK-MEL-28 melanoma = system: SK-MEL-28 melanoma
MDA-MB-231 breast = system: MDA-MB-231 breast
SW-620 colon = system: SW-620 colon
786-0 renal = system: 786-0 renal
HOP-62 NSCLC = system: HOP-62 NSCLC
SN12C renal = system: SN12C renal
CAKI-1 renal = system: CAKI-1 renal
A498 renal = system: A498 renal
A549 NSCLC = system: A549 NSCLC
IGROV1 ovarian = system: IGROV1 ovarian
UACC-257 melanoma = system: UACC-257 melanoma
SK-MEL-5 melanoma = system: SK-MEL-5 melanoma
SF-295 CNS = system: SF-295 CNS
HOP-92 NSCLC = system: HOP-92 NSCLC
SR leukemia = system: SR leukemia
MCF7 breast = system: MCF7 breast
HCT-15 colon = system: HCT-15 colon
DU-145 prostate = system: DU-145 prostate
LOX IMVI melanoma = system: LOX IMVI melanoma
NCI-H226 lung = system: NCI-H226 lung
HCC-2998 colon = system: HCC-2998 colon
OVCAR-8 ovarian = system: OVCAR-8 ovarian
T-47D breast = system: T-47D breast
HT29 colon = system: HT29 colon
SF-268 CNS = system: SF-268 CNS
K-562 leukemia = system: K-562 leukemia
UACC-62 melanoma = system: UACC-62 melanoma
UO-31 renal = system: UO-31 renal
RPMI-8226 leukemia = system: RPMI-8226 leukemia
TK-10 renal = system: TK-10 renal

Cc1ccc2c(n1)C(=O)C(Cl)=C(Nc1ccc(C(=O)OC(C)(C)C)cc1)C2=O
36.7 µM: TGI (HOP-92 NSCLC)
25.5 µM: TGI (RXF 393 renal)
55.7 µM: TGI (SR leukemia)
35.3 µM: TGI (MCF7 breast)
71.1 µM: TGI (HL-60(TB) leukemia)
72.8 µM: TGI (MOLT-4 leukemia)
35.7 µM: TGI (NCI-H522 lung)
53.1 µM: TGI (UO-31 renal)
63 µM: TGI (COLO 205 colon)
55.4 µM: TGI (T-47D breast)
30.4 µM: TGI (OVCAR-3 ovarian)
> 92.5 µM: TGI (SK-OV-3 ovarian) | TGI (EKVX NSCLC) | TGI (BT-549 breast) | TGI (SK-MEL-2 melanoma) | TGI (SNB-19 CNS) | TGI (HS 578T breast) | TGI (CCRF-CEM leukemia) | TGI (NCI/ADR-RES ovarian) | TGI (PC-3 prostate) | TGI (SF-539 CNS) | TGI (NCI-H460 lung) | TGI (MDA-MB-435) | TGI (KM12 colon) | TGI (OVCAR-5 ovarian) | TGI (U251 CNS) | TGI (SNB-75 CNS) | TGI (M14 melanoma) | TGI (MDA-MB-231 breast) | TGI (786-0 renal) | TGI (HOP-62 NSCLC) | TGI (SN12C renal) | TGI (A498 renal) | TGI (A549 NSCLC) | TGI (IGROV1 ovarian) | TGI (UACC-257 melanoma) | TGI (SK-MEL-5 melanoma) | TGI (SF-295 CNS) | TGI (DU-145 prostate) | TGI (NCI-H226 lung) | TGI (HCC-2998 colon) | TGI (OVCAR-8 ovarian) | TGI (HT29 colon) | TGI (SF-268 CNS) | TGI (K-562 leukemia) | TGI (UACC-62 melanoma) | TGI (RPMI-8226 leukemia) | TGI (TK-10 renal)
30.5 µM: TGI (MALME-3M melanoma)
29.2 µM: TGI (OVCAR-4 ovarian)
30.6 µM: TGI (CAKI-1 renal)
inactive: GI50 (OVCAR-3 ovarian) 13.8 µM | GI50 (MOLT-4 leukemia) 4.65 µM | GI50 (SK-OV-3 ovarian) > 92.5 µM | GI50 (EKVX NSCLC) > 92.5 µM | GI50 (BT-549 breast) > 92.5 µM | GI50 (SK-MEL-2 melanoma) > 92.5 µM | GI50 (SNB-19 CNS) > 92.5 µM | GI50 (HL-60(TB) leukemia) 7.65 µM | GI50 (NCI-H522 lung) 16.3 µM | GI50 (HS 578T breast) > 92.5 µM | GI50 (CCRF-CEM leukemia) 5.9 µM | GI50 (HCT-116 colon) 15.5 µM | GI50 (OVCAR-4 ovarian) 12.7 µM | GI50 (RXF 393 renal) 12.8 µM | GI50 (NCI/ADR-RES ovarian) > 92.5 µM | GI50 (PC-3 prostate) > 92.5 µM | GI50 (SF-539 CNS) > 92.5 µM | GI50 (ACHN renal) 15.8 µM | GI50 (NCI-H460 lung) > 92.5 µM | GI50 (MDA-MB-435) 90.3 µM | GI50 (KM12 colon) > 92.5 µM | GI50 (OVCAR-5 ovarian) > 92.5 µM | GI50 (MALME-3M melanoma) 15.7 µM | GI50 (U251 CNS) > 92.5 µM | GI50 (SNB-75 CNS) > 92.5 µM | GI50 (M14 melanoma) 29.2 µM | GI50 (COLO 205 colon) 21.9 µM | GI50 (SK-MEL-28 melanoma) 18.2 µM | GI50 (MDA-MB-231 breast) 30.2 µM | GI50 (SW-620 colon) 18.5 µM | GI50 (786-0 renal) > 92.5 µM | GI50 (HOP-62 NSCLC) > 92.5 µM | GI50 (SN12C renal) > 92.5 µM | GI50 (CAKI-1 renal) 14.4 µM | GI50 (A498 renal) > 92.5 µM | GI50 (A549 NSCLC) > 92.5 µM | GI50 (IGROV1 ovarian) 71.4 µM | GI50 (UACC-257 melanoma) 31.7 µM | GI50 (SK-MEL-5 melanoma) > 92.5 µM | GI50 (SF-295 CNS) > 92.5 µM | GI50 (HOP-92 NSCLC) 16.4 µM | GI50 (SR leukemia) 3.44 µM | GI50 (MCF7 breast) 16 µM | GI50 (HCT-15 colon) 15.4 µM | GI50 (DU-145 prostate) > 92.5 µM | GI50 (LOX IMVI melanoma) 16.9 µM | GI50 (NCI-H226 lung) > 92.5 µM | GI50 (HCC-2998 colon) > 92.5 µM | GI50 (OVCAR-8 ovarian) > 92.5 µM | GI50 (T-47D breast) 16.6 µM | GI50 (HT29 colon) > 92.5 µM | GI50 (SF-268 CNS) > 92.5 µM | GI50 (K-562 leukemia) 3.77 µM | GI50 (UACC-62 melanoma) > 92.5 µM | GI50 (UO-31 renal) 18.9 µM | GI50 (RPMI-8226 leukemia) 23.3 µM | GI50 (TK-10 renal) > 92.5 µM
28.6 µM: TGI (ACHN renal)
33 µM: TGI (LOX IMVI melanoma)
32 µM: TGI (HCT-116 colon)
44 µM: TGI (SW-620 colon)
33.9 µM: TGI (HCT-15 colon)
38.5 µM: TGI (SK-MEL-28 melanoma)

From PubChem BioAssay (NCI)
